Measured values: paper PMC7561186, “Rational design of balanced dual-targeting antibiotics with limited resistance” (PLoS Biology, 2020)
Converted amounts (≈) assume the structure as drawn. Where two headings read alike, the source gives them in different places.

Tested on: S. aureus clinical isolates
Assay: microbe, parasite or virus in culture
Assay type: cell-based
Conditions: Staphylococcus aureus, read-out: MIC

## Cc1onc(-c2ccccc2)c1C(=O)N[C@@H]1C(=O)N2[C@@H]1SC(C)(C)[C@@H]2C(=O)O [Oxacillin]
ATCC 29213 / MSSA, S. aureus ATCC 29213, MSSA / VSSA, test date 2018-10-25 (three repeat lines)
  MIC: 0.25 µg/mL (≈ 0.623 µM)
ATCC 29213 / MSSA, S. aureus ATCC 29213, MSSA / VSSA, test date 2018-11-07
  MIC: 0.25 µg/mL (≈ 0.623 µM)
MRSA / NRS 3 / VISA, S. aureus IHMA 1308243, NRS3, MRSA / VISA
  MIC: > 64 µg/mL
MRSA / NRS 4 / VISA, S. aureus IHMA 649380, NRS4, MRSA / VISA
  MIC: > 64 µg/mL
MRSA / NRS 18 / VISA, S. aureus IHMA 649386, NRS18, MRSA / VISA
  MIC: 64 µg/mL (≈ 159 µM)
MRSA / NRS 19 / VISA, S. aureus IHMA 649387, NRS19, MRSA / VISA
  MIC: > 64 µg/mL
MRSA / NRS 21 / VISA, S. aureus IHMA 649388, NRS21, MRSA / VISA
  MIC: > 64 µg/mL
MRSA / NRS 22 / USA600 / VISA, S. aureus IHMA 649389, NRS22, MRSA / VISA, USA600
  MIC: 16 µg/mL (≈ 39.9 µM)
MRSA / NRS 23 / VISA, S. aureus IHMA 649390, NRS23, MRSA / VISA
  MIC: > 64 µg/mL
MRSA / NRS 24 / VISA, S. aureus IHMA 649391, NRS24, MRSA / VISA
  MIC: > 64 µg/mL
MRSA / NRS 26, S. aureus IHMA 649392, NRS26, MRSA / VSSA
  MIC: > 64 µg/mL
MRSA / NRS 27 / VISA, S. aureus IHMA 1308248, NRS27, MRSA / VISA
  MIC: > 64 µg/mL
MRSA / NRS 29 / VISA, S. aureus IHMA 1308250, NRS29, MRSA / VISA
  MIC: > 64 µg/mL
MRSA / NRS 37 / VISA, S. aureus IHMA 1308251, NRS37, MRSA / VISA
  MIC: 8 µg/mL (≈ 19.9 µM)
MRSA / NRS 54, S. aureus IHMA 1308253, NRS54, MRSA / VSSA* (*Expected VAN intermediate, confirmed VAN susceptible twice), test date 2018-11-07
  MIC: > 64 µg/mL
MRSA / NRS 56 / VISA, S. aureus IHMA 1308254, NRS56, MRSA / VISA
  MIC: > 64 µg/mL
MRSA / USA100 / VRSA, S. aureus IHMA 672230, VRS1, MRSA / VRSA, USA100
  MIC: > 64 µg/mL
MRSA / USA100 / VRSA, S. aureus IHMA 672231, VRS2, MRSA / VRSA, USA100
  MIC: > 64 µg/mL
MRSA / USA100 / VRSA, S. aureus IHMA 672234, VRS4, MRSA / VRSA, USA100
  MIC: > 64 µg/mL
MRSA / USA100 / VRSA, S. aureus IHMA 672235, VRS5, MRSA / VRSA, USA100
  MIC: > 64 µg/mL
MRSA / USA100 / VRSA, S. aureus IHMA 672237, VRS7, MRSA / VRSA, USA100
  MIC: > 64 µg/mL
MRSA / USA100 / VRSA, S. aureus IHMA 672238, VRS8, MRSA / VRSA, USA100
  MIC: > 64 µg/mL
MRSA / USA100 / VRSA, S. aureus IHMA 672239, VRS9, MRSA / VRSA, USA100
  MIC: > 64 µg/mL
MRSA / USA100 / VRSA, S. aureus IHMA 1308256, VRS10, MRSA / VRSA, USA100
  MIC: > 64 µg/mL
MRSA / USA100 / VRSA, S. aureus IHMA 1308258, VRS11b, MRSA / VRSA, USA100
  MIC: 16 µg/mL (≈ 39.9 µM)
MRSA / USA800 / VRSA, S. aureus IHMA 672233, VRS3b, MRSA / VRSA, USA800
  MIC: > 64 µg/mL
MRSA, S. aureus IHMA 1569509, MRSA / VSSA
  MIC: > 64 µg/mL
MRSA, S. aureus IHMA 1575268, MRSA / VSSA
  MIC: > 64 µg/mL
MRSA, S. aureus IHMA 1575629, MRSA / VSSA
  MIC: 64 µg/mL (≈ 159 µM)
MRSA, S. aureus IHMA 1577820, MRSA / VSSA
  MIC: 32 µg/mL (≈ 79.7 µM)
MRSA, S. aureus IHMA 1580300, MRSA / VSSA
  MIC: > 64 µg/mL
MRSA, S. aureus IHMA 1580940, MRSA / VSSA
  MIC: 32 µg/mL (≈ 79.7 µM)
MRSA, S. aureus IHMA 1582100, MRSA / VSSA
  MIC: > 64 µg/mL
MRSA, S. aureus IHMA 1583795, MRSA / VSSA
  MIC: > 64 µg/mL
MRSA, S. aureus IHMA 1584223, MRSA / VSSA
  MIC: > 64 µg/mL
MRSA, S. aureus IHMA 1585316, MRSA / VSSA
  MIC: > 64 µg/mL
MRSA, S. aureus IHMA 1586780, MRSA / VSSA
  MIC: 32 µg/mL (≈ 79.7 µM)
MRSA, S. aureus IHMA 1587322, MRSA / VSSA
  MIC: > 64 µg/mL
MRSA, S. aureus IHMA 1588127, MRSA / VSSA
  MIC: 32 µg/mL (≈ 79.7 µM)
MRSA, S. aureus IHMA 1591462, MRSA / VSSA
  MIC: 32 µg/mL (≈ 79.7 µM)
MRSA, S. aureus IHMA 1592755, MRSA / VSSA
  MIC: > 64 µg/mL
MRSA, S. aureus IHMA 1592776, MRSA / VSSA
  MIC: 32 µg/mL (≈ 79.7 µM)
MRSA, S. aureus IHMA 1597106, MRSA / VSSA
  MIC: > 64 µg/mL
MRSA, S. aureus IHMA 1602095, MRSA / VSSA
  MIC: 32 µg/mL (≈ 79.7 µM)
MRSA, S. aureus IHMA 1611170, MRSA / VSSA
  MIC: 16 µg/mL (≈ 39.9 µM)
MRSA, S. aureus IHMA 1611612, MRSA / VSSA
  MIC: > 64 µg/mL
MRSA, S. aureus IHMA 1612228, MRSA / VSSA
  MIC: > 64 µg/mL
MRSA, S. aureus IHMA 1620441, MRSA / VSSA
  MIC: > 64 µg/mL
MRSA, S. aureus IHMA 1621638, MRSA / VSSA
  MIC: 32 µg/mL (≈ 79.7 µM)
MRSA, S. aureus IHMA 1622252, MRSA / VSSA
  MIC: > 64 µg/mL
MRSA, S. aureus IHMA 1622527, MRSA / VSSA
  MIC: 32 µg/mL (≈ 79.7 µM)
MRSA, S. aureus IHMA 1666371, MRSA / VSSA
  MIC: 16 µg/mL (≈ 39.9 µM)
MRSA, S. aureus IHMA 1695391, MRSA / VSSA
  MIC: > 64 µg/mL
MRSA, S. aureus IHMA 1703428, MRSA / VSSA
  MIC: 64 µg/mL (≈ 159 µM)
MRSA, S. aureus IHMA 1720350, MRSA / VSSA
  MIC: 32 µg/mL (≈ 79.7 µM)
MRSA, S. aureus IHMA 1732989, MRSA / VSSA
  MIC: > 64 µg/mL
MRSA, S. aureus IHMA 1742231, MRSA / VSSA
  MIC: > 64 µg/mL
MRSA, S. aureus IHMA 1766357, MRSA / VSSA
  MIC: 32 µg/mL (≈ 79.7 µM)
MSSA / NRS 12 / VISA, S. aureus IHMA 1308244, NRS12, MSSA / VISA
  MIC: 0.25 µg/mL (≈ 0.623 µM)
MSSA / NRS 13 / VISA, S. aureus IHMA 1308245, NRS13, MSSA / VISA
  MIC: 0.5 µg/mL (≈ 1.25 µM)
MSSA / NRS 14 / VISA, S. aureus IHMA 1308246, NRS14, MSSA / VISA
  MIC: 0.25 µg/mL (≈ 0.623 µM)
MSSA / NRS 17 / VISA, S. aureus IHMA 1308247, NRS17, MSSA / VISA
  MIC: 2 µg/mL (≈ 4.98 µM)
MSSA / NRS 28 / VISA, S. aureus IHMA 1308249, NRS28, MSSA / VISA
  MIC: 2 µg/mL (≈ 4.98 µM)
MSSA / NRS 52, S. aureus IHMA 1308252, NRS52, MSSA / VSSA* (*Expected VAN intermediate, confirmed VAN susceptible twice), test date 2018-11-07
  MIC: 0.12 µg/mL (≈ 0.299 µM)
MSSA / USA100 / VRSA, S. aureus IHMA 672236, VRS6, MSSA / VRSA, USA100
  MIC: 2 µg/mL (≈ 4.98 µM)
MSSA, S. aureus IHMA 1563826, MSSA / VSSA
  MIC: 0.25 µg/mL (≈ 0.623 µM)
MSSA, S. aureus IHMA 1565492, MSSA / VSSA
  MIC: 0.25 µg/mL (≈ 0.623 µM)
MSSA, S. aureus IHMA 1569499, MSSA / VSSA
  MIC: 1 µg/mL (≈ 2.49 µM)
MSSA, S. aureus IHMA 1569754, MSSA / VSSA
  MIC: 1 µg/mL (≈ 2.49 µM)
MSSA, S. aureus IHMA 1574202, MSSA / VSSA
  MIC: 2 µg/mL (≈ 4.98 µM)
MSSA, S. aureus IHMA 1575652, MSSA / VSSA
  MIC: 1 µg/mL (≈ 2.49 µM)
MSSA, S. aureus IHMA 1575779, MSSA / VSSA
  MIC: 0.5 µg/mL (≈ 1.25 µM)
MSSA, S. aureus IHMA 1576329, MSSA / VSSA
  MIC: 0.5 µg/mL (≈ 1.25 µM)
MSSA, S. aureus IHMA 1577800, MSSA / VSSA
  MIC: 0.5 µg/mL (≈ 1.25 µM)
MSSA, S. aureus IHMA 1578560, MSSA / VSSA
  MIC: 0.5 µg/mL (≈ 1.25 µM)
MSSA, S. aureus IHMA 1580233, MSSA / VSSA
  MIC: 0.5 µg/mL (≈ 1.25 µM)
MSSA, S. aureus IHMA 1580925, MSSA / VSSA
  MIC: 0.5 µg/mL (≈ 1.25 µM)
MSSA, S. aureus IHMA 1580955, MSSA / VSSA
  MIC: 0.5 µg/mL (≈ 1.25 µM)
MSSA, S. aureus IHMA 1582586, MSSA / VSSA
  MIC: 0.5 µg/mL (≈ 1.25 µM)
MSSA, S. aureus IHMA 1582691, MSSA / VSSA
  MIC: 0.25 µg/mL (≈ 0.623 µM)
MSSA, S. aureus IHMA 1584230, MSSA / VSSA
  MIC: 0.5 µg/mL (≈ 1.25 µM)
MSSA, S. aureus IHMA 1587279, MSSA / VSSA
  MIC: 0.25 µg/mL (≈ 0.623 µM)
MSSA, S. aureus IHMA 1591459, MSSA / VSSA
  MIC: 0.25 µg/mL (≈ 0.623 µM)
MSSA, S. aureus IHMA 1592749, MSSA / VSSA
  MIC: 0.25 µg/mL (≈ 0.623 µM)
MSSA, S. aureus IHMA 1592751, MSSA / VSSA
  MIC: 0.5 µg/mL (≈ 1.25 µM)
MSSA, S. aureus IHMA 1594297, MSSA / VSSA
  MIC: 0.5 µg/mL (≈ 1.25 µM)
MSSA, S. aureus IHMA 1597120, MSSA / VSSA
  MIC: 0.25 µg/mL (≈ 0.623 µM)
MSSA, S. aureus IHMA 1597125, MSSA / VSSA
  MIC: 0.5 µg/mL (≈ 1.25 µM)
MSSA, S. aureus IHMA 1599157, MSSA / VSSA
  MIC: 0.5 µg/mL (≈ 1.25 µM)
MSSA, S. aureus IHMA 1599506, MSSA / VSSA
  MIC: 0.5 µg/mL (≈ 1.25 µM)
MSSA, S. aureus IHMA 1602078, MSSA / VSSA
  MIC: 1 µg/mL (≈ 2.49 µM)
MSSA, S. aureus IHMA 1604586, MSSA / VSSA
  MIC: 0.5 µg/mL (≈ 1.25 µM)
MSSA, S. aureus IHMA 1604609, MSSA / VSSA
  MIC: 0.25 µg/mL (≈ 0.623 µM)
MSSA, S. aureus IHMA 1609919, MSSA / VSSA
  MIC: 0.25 µg/mL (≈ 0.623 µM)
MSSA, S. aureus IHMA 1622864, MSSA / VSSA
  MIC: 0.5 µg/mL (≈ 1.25 µM)
MSSA, S. aureus IHMA 1626392, MSSA / VSSA
  MIC: 0.5 µg/mL (≈ 1.25 µM)
MSSA, S. aureus IHMA 1713793, MSSA / VSSA
  MIC: 0.5 µg/mL (≈ 1.25 µM)
